The target of one assay is T1, human EP1 receptor (Homo sapiens, UniProt P34995).
T1 construct: expressed in transfected cells
T1 sequence (P34995 1-402): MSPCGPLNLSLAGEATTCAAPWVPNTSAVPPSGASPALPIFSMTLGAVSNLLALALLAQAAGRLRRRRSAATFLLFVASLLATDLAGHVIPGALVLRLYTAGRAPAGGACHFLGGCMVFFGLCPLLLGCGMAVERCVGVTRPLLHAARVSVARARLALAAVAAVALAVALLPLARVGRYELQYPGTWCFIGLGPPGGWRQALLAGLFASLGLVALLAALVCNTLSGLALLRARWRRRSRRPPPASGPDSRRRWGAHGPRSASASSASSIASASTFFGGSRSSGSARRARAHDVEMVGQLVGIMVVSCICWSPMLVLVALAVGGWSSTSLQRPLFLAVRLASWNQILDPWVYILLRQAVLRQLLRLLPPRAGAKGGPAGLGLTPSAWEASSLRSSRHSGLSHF
The assay can be described thus: [3H]PGE2 receptor binding test, human EP1 receptor expressing HEK293 membrane fraction. The settings on record: [3H]PGE2 1 nM. The method, then:
(§1) Receptor Binding Test by Using Human EP Receptor Expressing Cells
(§2) In order to evaluate the selectivity for each EP receptor subtype, which is considered to greatly influence on the side reaction of drugs, [^3H]PGE2 binding inhibitory activities of test compounds were measured in HEK293 in which human EP1, human EP2, human EP3, or human EP4 receptor was stably expressed.
(§3) As a result of searching for prostaglandin E receptors using Refseq Database, the gene information of human EP1 (NM_000955), human EP2 (NM_000956), human EP3 (NM_198719), and human EP4 (NM_000958) was obtained. […] After the reaction, the reaction mixture was subjected to suction filtration under reduced pressure so that [^3H]PGE2 binding to the membrane fraction was trapped on Unifilter Plate GF/C (produced by Packard), and binding radioactivity was measured by using a liquid scintillator.
(§4) The Kd value was obtained by Scatchard plot. […] The [^3H]PGE2 binding inhibitory activity of a test compound was measured by adding [^3H]PGE2 (1 nM) and a test compound at various concentrations. […]
(§5) Further, HEK293 in which each of human EP1, human EP2, and human EP3 receptors was stably expressed was established, and a membrane fraction was prepared. […] The ratios of Ki value for human EP4 to Ki values for human EP1, human EP2, and human EP3 were calculated. […]

In a further assay the target is T2, human EP2 receptor (Homo sapiens, UniProt P43116).
T2 construct: expressed in transfected cells
As to the kind of experiment: [3H]PGE2 receptor binding test, human EP2 receptor expressing HEK293 membrane fraction. The settings on record: [3H]PGE2 1 nM. The method, then:
as §1, §2, §3, §4, §5

In the next assay the target is T3, human EP3 receptor (Homo sapiens, UniProt P43115).
T3 construct: expressed in transfected cells
T3 sequence (P43115 1-390): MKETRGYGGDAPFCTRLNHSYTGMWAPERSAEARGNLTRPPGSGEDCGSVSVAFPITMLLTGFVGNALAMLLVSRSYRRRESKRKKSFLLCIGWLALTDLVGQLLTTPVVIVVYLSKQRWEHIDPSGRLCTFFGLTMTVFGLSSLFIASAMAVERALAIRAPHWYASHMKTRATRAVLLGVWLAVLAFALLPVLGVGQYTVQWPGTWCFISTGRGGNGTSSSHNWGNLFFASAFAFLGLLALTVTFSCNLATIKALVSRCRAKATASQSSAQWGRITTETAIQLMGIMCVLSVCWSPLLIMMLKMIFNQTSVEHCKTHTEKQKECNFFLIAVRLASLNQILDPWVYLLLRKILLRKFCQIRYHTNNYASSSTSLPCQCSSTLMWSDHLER
As to the kind of experiment: [3H]PGE2 receptor binding test, human EP3 receptor expressing HEK293 membrane fraction. The following applies: [3H]PGE2 1 nM. The method, then:
as §1, §2, §3, §4, §5

In assay [1] the test system is dextran sulfate-induced inflammatory intestinal disease model mice. As to the kind of experiment: Action in dextran sulfate-induced inflammatory intestinal disease model mice. Format: in vivo, mouse. The following applies: 7% DSS drinking water 10 days; 0.1-100 mg/kg every day for 10 days. From the text: Action in Dextran Sulfate-Induced Inflammatory Intestinal Disease Model Mice
8-Week old female C57BL/6J mice were allowed to take 7% dextran sulfate (henceforth abbreviated as “DSS”) solution as drinking water ad libitum for 10 days to prepare inflammatory intestinal disease model. From the start of DSS intake, Example Compound Nos. IAH-H001a, IAH-H010 and IAH-H057 each dissolved in a suitable solvent (20 to 50% PEG 400 or 15% cyclodextrin) in the same manner as in Formulation Example 1 were given at appropriate doses (0.1 mg/kg, 1 mg/kg, 10 mg/kg, or 100 mg/kg) every day for 10 days (henceforth referred to as “medicament-treated groups”). Further, the solvent used for dissolving the compounds of the present invention was solely given to the mice made to take DSS (henceforth referred to as “solvent group”), and the solvent used for dissolving the compounds of the present invention was solely given every day to the mice allowed to take distilled water not containing DSS as drinking water ad libitum (henceforth referred to as “normal group”). The number of mice in each group was 10. After the start of intake of drinking water, body weight and clinical score were measured every other day. […] The mice were sacrificed 10 days after the start of intake of DSS containing water, and weights of the intestinal tracts of the large intestines were measured.

A further assay deals with crab-eating monkeys. As to the kind of experiment: Intraocular pressure lowering action in crab-eating monkeys. The following applies: 50 μl instilled, measured over 6 hours, 3 monkeys. Format: in vivo, crab-eating monkey. How it is done: Intraocular Pressure Lowering Action
Male crab-eating monkeys with a body weight of 5 to 7.5 kg (5- to 10-year old) were used for the experiment. Example Compound Nos. IAH-H001a, IAH-H010, and IAH-H057 were each dissolved at various concentrations in water or physiological saline containing sodium hydroxide in an amount of the same equivalence as each compound. The intraocular pressure was measured immediately before a treatment with a test compound, then 50 μl of a solution containing each test compound was instilled, and the intraocular pressure was measured over time for 6 hours after the instillation. The intraocular pressure was measured under ketamine (5 to 10 mg/kg, intramuscular injection) anesthetization by using a pneumatic applanation tonometer. Each test compound was used in 3 monkeys, and the intraocular pressures before and after the instillation were compared.

T2 sequence (P43116 whole entry): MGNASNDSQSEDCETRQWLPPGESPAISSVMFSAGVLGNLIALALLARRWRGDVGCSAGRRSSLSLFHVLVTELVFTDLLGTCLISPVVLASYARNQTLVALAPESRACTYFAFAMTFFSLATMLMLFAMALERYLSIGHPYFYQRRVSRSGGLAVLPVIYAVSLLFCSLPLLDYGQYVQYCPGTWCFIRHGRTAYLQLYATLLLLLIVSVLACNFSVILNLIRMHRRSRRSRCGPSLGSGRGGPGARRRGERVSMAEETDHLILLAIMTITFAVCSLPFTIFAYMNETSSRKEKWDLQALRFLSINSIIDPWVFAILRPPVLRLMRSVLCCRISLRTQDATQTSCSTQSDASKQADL

With `O=C(O)c1ccc(CCN2C(=O)CCCN2CCC(O)Cc2cccc(C(F)(F)F)c2)cc1` (stereo not drawn) [IAH-H001a, 4-[2-(2-{3-hydroxy-4-[3-(trifluoromethyl)-phenyl]butyl}-6-oxotetrahydropyridazin-1-yl)ethyl]benzoic acid], the “ratio of Ki values human EP1/human EP4” value on human EP1 receptor is recorded as not below 80000. For the same compound, the “ratio of Ki values human EP2/human EP4” value on human EP2 receptor is listed as 15000. Besides, on human EP3 receptor, the “ratio of Ki values human EP3/human EP4” value is reported as not below 45000. Moreover, in assay [1], the “diarrhea score and bloody stool score compared with the solvent group” value was “significantly improved and suppressed”; the “reduction of the large intestine weight compared with the solvent group” value is given as “significantly suppressed”. Further, the “intraocular pressure after instillation compared with before instillation” value with crab-eating monkeys was “significant intraocular pressure lowering action”.

The values are drawn from US7531533B2, “6-Membered heterocyclic compound and use thereof” (Asahi Kasei Pharma Corporation, priority 2005, dated 2009).
